Results on 42 substances are retold here after patent US10487116B2, “Immunotherapy against several tumors, such as lung cancer, including NSCLC” (IMMATICS BIOTECHNOLOGIES GMBH, priority 2013, dated 2019).

Where two headings read alike, the source gives them in different places.

The test deals with CD8+ T cells. The test can be described thus: In vitro T-cell priming assay (aAPCs loaded with peptide/MHC and anti-CD28, pMHC multimer readout). It is filed as cell-based, human. The conditions noted are these: for Wells: positive wells. An excerpt:
In order to obtain information regarding the immunogenicity of the TUMAPs of the present invention, we performed investigations using an in vitro T-cell priming assay based on repeated stimulations of CD8+ T cells with artificial antigen presenting cells (aAPCs) loaded with peptide/MHC complexes and anti-CD28 antibody.
In order to perform in vitro stimulations by artificial antigen presenting cells loaded with peptide-MHC complex (pMHC) and anti-CD28 antibody, we first isolated CD8+ T cells from fresh HLA-A*02 leukapheresis products via positive selection using CD8 microbeads (Miltenyi Biotec, Bergisch-Gladbach, Germany) of healthy donors obtained from the Transfusion Medicine Tuebingen, Germany, after informed consent.
Isolated CD8+ lymphocytes or PBMCs were incubated until use in T-cell medium (TCM) consisting of RPMI-Glutamax (Invitrogen, Karlsruhe, Germany) supplemented with 10% heat inactivated human AB serum (PAN-Biotech, Aidenbach, Germany), 100 U/ml Penicillin/100 μg/ml Streptomycin (Cambrex, Cologne, Germany), 1 mM sodium pyruvate (CC Pro, Oberdorla, Germany), 20 μg/ml Gentamycin (Cambrex). 2.5 ng/ml IL-7 (PromoCell, Heidelberg, Germany) and 10 U/ml IL-2 (Novartis Pharma, Nurnberg, Germany) were also added to the TCM at this step.
Generation of pMHC/anti-CD28 coated beads, T-cell stimulations and readout was performed in a highly defined in vitro system using four different pMHC molecules per stimulation condition and 8 different pMHC molecules per readout condition.
All pMHC complexes used for aAPC loading and cytometric readout were derived from UV-induced MHC ligand exchange (Rodenko et al., 2006) with minor modifications. In order to determine the amount of pMHC monomer obtained by exchange we performed streptavidin-based sandwich ELISAs according to (Rodenko et al., 2006).
The purified co-stimulatory mouse IgG2a anti human CD28 Ab 9.3 (Jung et al., 1987) was chemically biotinylated using Sulfo-N-hydroxysuccinimidobiotin as recommended by the manufacturer (Perbio, Bonn, Germany). Beads used were 5.6 μm diameter streptavidin coated polystyrene particles (Bangs Laboratories, Ill., USA).
pMHC used for positive and negative control stimulations were A*0201/MLA-001 (peptide […] from modified Melan-A/MART-1) and A*0201/DDX5-001 ([…] from DDX5), respectively.
800.000 beads/200 μl were coated in 96-well plates in the presence of 4×12.5 ng different biotin-pMHC, washed and 600 ng biotin anti-CD28 were added subsequently in a volume of 200 μl. Stimulations were initiated in 96-well plates by co-incubating 1×10^6 CD8+ T cells with 2×10^5 washed coated beads in 200 μl TCM supplemented with 5 ng/ml IL-12 (PromoCell) for 3-4 days at 37° C. Half of the medium was then exchanged by fresh TCM supplemented with 80 U/ml IL-2 and incubating was continued for 3-4 days at 37° C. This stimulation cycle was performed for a total of three times. For the pMHC multimer readout using 8 different pMHC molecules per condition, a two-dimensional combinatorial coding approach was used as previously described (Andersen et al., 2012) with minor modifications encompassing coupling to 5 different fluorochromes. Finally, multimeric analyses were performed by staining the cells with Live/dead near IR dye (Invitrogen, Karlsruhe, Germany), CD8-FITC antibody clone SK1 (BD, Heidelberg, Germany) and fluorescent pMHC multimers. For analysis, a BD LSRII SORP cytometer equipped with appropriate lasers and filters was used. Peptide specific cells were calculated as percentage of total CD8+ cells. Evaluation of multimeric analysis was done using the FlowJo software (Tree Star, Oreg., USA). In vitro priming of specific multimer+CD8+ lymphocytes was detected by comparing to negative control stimulations.

Setting [1] is: in vitro immunogenicity, trifluoro-acetate salts of the peptides.
Setting [2] is: in vitro immunogenicity, responding healthy donors, trifluoro-acetate salts of the peptides.

Turning to “46 (TLTNIIHNL; listed as Homo sapiens) [compound 46]”, the Wells result under setting [1] is “+ (<20% = +)”. For the same substance, the Donors entry under setting [2] is listed as “+++ (50%-70%, +++)”.
For the substance “81 (ALYGRLEVV; listed as Homo sapiens) [compound 81]”, under setting [1], the Wells entry is reported as “+ (<20% = +)”. Moreover, the Donors result under setting [2] was “++ (20%-49% = ++)”.
In the same order, the values of “7 (TLWYRAPEV; listed as Homo sapiens) [compound 7]” are “++ (20%-49% = ++)” and “++++ (>70 = ++++)”.
In the same order, the values of “2 (KIQEMQHFL; listed as Homo sapiens) [compound 2]” are “+ (<20% = +)” and “++ (20%-49% = ++)”.
As to “11 (VLLPVEVATHYL; listed as Homo sapiens) [compound 11]”, the Donors is 100%. Also, the Wells entry under setting [1] was “++ (20%-49% = ++)”. For the same substance, the Donors entry under setting [2] is recorded as “++++ (>70 = ++++)”.
As for “30 (KIYNEFISV; listed as Homo sapiens) [compound 30]”, the Wells entry under setting [1] is on record as “+ (<20% = +)”. Also, the Donors entry under setting [2] is given as “++ (20%-49% = ++)”.
In the same order, the values of “73 (FLLDGSANV; listed as Homo sapiens) [compound 73]” are “+ (<20% = +)” and “++ (20%-49% = ++)”.
Consider “9 (ALMDKEGLTAL; listed as Homo sapiens) [compound 9]”, for which the Wells result under setting [1] was “+ (<20% = +)”. The Donors entry under setting [2] was “+ (<20% = +)”.
“63 (SLAGDVALQQL; listed as Homo sapiens) [compound 63]”: under setting [1], the Wells result is reported as “+ (<20% = +)”. Under setting [2], the Donors result is on record as “++ (20%-49% = ++)”.
In the same order, the values of “3 (ALDENLHQL; listed as Homo sapiens) [compound 3]” are “+ (<20% = +)” and “++ (20%-49% = ++)”.
In the same order, the values of “54 (KLVEFDFLGA; listed as Homo sapiens) [compound 54]” are “+ (<20% = +)” and “++ (20%-49% = ++)”.
In the case of “53 (YLPHAPPFA; listed as Homo sapiens) [compound 53]”, under setting [1], the Wells entry is on record as “++ (20%-49% = ++)”. Further, the Donors result under setting [2] was “++ (20%-49% = ++)”.
Regarding “47 (GVLENIFGV; listed as Homo sapiens) [compound 47]”, the Wells entry under setting [1] is reported as “+ (<20% = +)”. The Donors entry under setting [2] is reported as “++ (20%-49% = ++)”.
Turning to “43 (ALFPHLLQPV; listed as Homo sapiens) [compound 43]”, the Wells entry under setting [1] is listed as “+ (<20% = +)”. In addition, the Donors entry under setting [2] is on record as “+++ (50%-70%, +++)”.
For the substance “66 (KIQEILTQV; listed as Homo sapiens) [compound 66]”, the Wells entry under setting [1] is listed as “+ (<20% = +)”. For the same substance, under setting [2], the Donors entry is recorded as “+++ (50%-70%, +++)”.
On to “21 (AILDTLYEV; listed as Homo sapiens) [compound 21]”, for which the Wells entry under setting [1] is “++ (20%-49% = ++)”. The Donors result under setting [2] is reported as “++ (20%-49% = ++)”.
Consider “22 (FLIPIYHQV; listed as Homo sapiens) [compound 22]”, for which the Wells entry under setting [1] is “+ (<20% = +)”. Besides, the Donors entry under setting [2] is recorded as “+++ (50%-70%, +++)”.
In the same order, the values of “62 (ILFPDIIARA; listed as Homo sapiens) [compound 62]” are “++ (20%-49% = ++)” and “++++ (>70 = ++++)”.
As for “16 (TVIGFLLPFA; listed as Homo sapiens) [compound 16]”, the Wells entry under setting [1] was “+ (<20% = +)”. Also, the Donors entry under setting [2] is “++ (20%-49% = ++)”.
Taken in the same sequence, the figures for “55 (SLADFMQEV; listed as Homo sapiens) [compound 55]” were “+ (<20% = +)” and “++ (20%-49% = ++)”.
As for “18 (TLYPHTSQV; listed as Homo sapiens) [compound 18]”, under setting [1], the Wells entry was “+ (<20% = +)”. Also, the Donors result under setting [2] is given as “+++ (50%-70%, +++)”.
In the case of “60 (VVDKTLLLV; listed as Homo sapiens) [compound 60]”, the Donors was found to be 100%. In addition, the Wells entry under setting [1] is given as “+++ (50%-70%, +++)”. Under setting [2], the Donors result is “++++ (>70 = ++++)”.
For the substance “4 (NLIEKSIYL; listed as Homo sapiens) [compound 4]”, the Wells entry under setting [1] is given as “+ (<20% = +)”. Moreover, the Donors entry under setting [2] is on record as “++ (20%-49% = ++)”.
In the case of “42 (SLWGGDVVL; listed as Homo sapiens) [compound 42]”, the Donors stood at 100%. Further, the Wells entry under setting [1] was “++ (20%-49% = ++)”. For the same substance, under setting [2], the Donors entry is reported as “++++ (>70 = ++++)”.
As to “69 (AMSSKFFLV; listed as Homo sapiens) [compound 69]”, the Wells entry under setting [1] is reported as “++ (20%-49% = ++)”. The Donors entry under setting [2] is on record as “+++ (50%-70%, +++)”.
For the substance “70 (KILEDVVGV; listed as Homo sapiens) [compound 70]”, the Wells result under setting [1] was “+ (<20% = +)”. Further, the Donors entry under setting [2] is “+++ (50%-70%, +++)”.
In the same order, the values of “67 (ILQDRLNQV; listed as Homo sapiens) [compound 67]” are “+ (<20% = +)” and “++ (20%-49% = ++)”.
In the case of “1 (ILFEINPKL; listed as Homo sapiens) [compound 1]”, the Wells entry under setting [1] is listed as “+ (<20% = +)”. For the same substance, the Donors result under setting [2] is on record as “++ (20%-49% = ++)”.
Take “65 (KVLEILHRV; listed as Homo sapiens) [compound 65]”: the Wells result under setting [1] was “++ (20%-49% = ++)”. Also, the Donors entry under setting [2] is reported as “+++ (50%-70%, +++)”.
Turning to “79 (SLAPAGVIRV; listed as Homo sapiens) [compound 79]”, the Wells entry under setting [1] was “+ (<20% = +)”. Besides, under setting [2], the Donors result is on record as “++++ (>70 = ++++)”.
Consider “87 (RVLPPSALQSV; listed as Homo sapiens) [compound 87]”, for which, under setting [1], the Wells result is “+ (<20% = +)”. Further, the Donors entry under setting [2] is recorded as “+++ (50%-70%, +++)”.
Taken in the same sequence, the figures for “85 (KIVDFSYSV; listed as Homo sapiens) [compound 85]” were “++ (20%-49% = ++)” and “++++ (>70 = ++++)”.
As to “64 (AMLAVLHTV; listed as Homo sapiens) [compound 64]”, the Wells entry under setting [1] is listed as “+ (<20% = +)”. Moreover, under setting [2], the Donors result is reported as “+++ (50%-70%, +++)”.
Taken in the same sequence, the figures for “45 (AIMGFIGFFV; listed as Homo sapiens) [compound 45]” were “+ (<20% = +)” and “+ (<20% = +)”.
In the same order, the values of “24 (FLVDGSWSV; listed as Homo sapiens) [compound 24]” are “+ (<20% = +)” and “++ (20%-49% = ++)”.
Turning to “72 (KLLTEVHAA; listed as Homo sapiens) [compound 72]”, the Wells result under setting [1] is “+ (<20% = +)”. Under setting [2], the Donors entry was “+++ (50%-70%, +++)”.
In the case of “33 (ALLRTVVSV; listed as Homo sapiens) [compound 33]”, the Wells entry under setting [1] is “+ (<20% = +)”. Under setting [2], the Donors entry was “+++ (50%-70%, +++)”.
Taken in the same sequence, the figures for “19 (AVVEFLTSV; listed as Homo sapiens) [compound 19]” were “+ (<20% = +)” and “++ (20%-49% = ++)”.
Taken in the same sequence, the figures for “15 (KLAVALLAA; listed as Homo sapiens) [compound 15]” were “++ (20%-49% = ++)” and “++ (20%-49% = ++)”.
Taken in the same sequence, the figures for “10 (VLSVVEVTL; listed as Homo sapiens) [compound 10]” were “+ (<20% = +)” and “++ (20%-49% = ++)”.
Regarding “57 (GLAEDIDKGEV; listed as Homo sapiens) [compound 57]”, the Wells entry under setting [1] is “+ (<20% = +)”. In addition, the Donors result under setting [2] is given as “++ (20%-49% = ++)”.
“31 (AIDGNNHEV; listed as Homo sapiens) [compound 31]”: the Wells entry under setting [1] is listed as “+ (<20% = +)”. For the same substance, the Donors entry under setting [2] is recorded as “+++ (50%-70%, +++)”.
